This note sets out measurements from US20040132696A1, “Therapeutic agents for pigmentation and melanocyte growth inhibitory agents” (priority 1999, published 2004).

The structures appear in SMILES notation. Like-named read-outs stand apart in the source and are kept apart here. Bounds are passed on as bounds.

Holding throughout (format): cell-based
In assay [1] the test system is normal human epidermal melanocytes (NHEM). Description: Growth inhibition of cultured human melanocytes (cell count by Coulter Counter). To be noted: Melanocyte, 144 h, read-out: inhibitory effect against the proliferation of melanocytes. As to the method: (§1) Melanocytes: normal human epidermal melanocytes (NHEM:KM-4009, Kurabo Industries).
(§2) Melanocytes were cultured at 2×10^5 cells/well in MGM3 (Melanocyte Growth Medium 3, Takara Shuzo) used as a culture medium. Keratinocytes were cultured at 1×10^5 cells/well in KGM2 (Keratinocyte Growth Medium 2, Takara Shuzo) used as a culture medium. To each well was added 22-oxacalcitriol or calcitriol at a final concentration of 10^−7 M and cultivation was continued. On days 3 and 6 after the addition, the number of cells was determined by a Coulter Counter.

Assay [2] has as its system normal human epidermal keratinocytes (HEKn). As to the kind of experiment: Growth inhibition of cultured human keratinocytes (cell count by Coulter Counter). To be noted: Keratinocyte, 144 h, read-out: inhibition against keratinocytes. The method, then:
Keratinocytes: normal human epidermal keratinocytes (HEKn:C-001-5C, Kurabo Industries).
as §2

Another assay concerns Human melanocytes. Description: Tritiated thymidine (3[H]-TdR) uptake by cultured human melanocytes. To be noted: 10^-7 M, day 1. The method, then: as §1
Human melanocytes were cultured at 5×10^5 cells/well in MGM3 used as a culture medium, and 22-oxacalcitriol or calcitriol was added to each well at a final concentration of 10^−7 M to determine tritiated thymidine (^3[H]-TdR) uptake by cells in a liquid scintillation counter on days 1, 3 and 5 after the addition.

The mark [3] stands for this setting: 10^-7 M, day 6, average of 5 experiments.

In the case of `C=C1/C(=C\C=C2/CCC[C@]3(C)[C@@H]([C@H](C)OCCC(C)(C)O)CC[C@@H]23)C[C@@H](O)C[C@@H]1O` [22-oxacalcitriol], the inhibition at 0.1 µM in assay [1] (setting [3]) is at least 30%; in assay [2] (setting [3]), 25%.
For `C=C1/C(=C\C=C2/CCC[C@]3(C)[C@@H]([C@H](C)CCCC(C)(C)O)CC[C@@H]23)C[C@@H](O)C[C@@H]1O` [calcitriol, 1α,25-dihydroxyvitamin D3], the inhibition at 0.1 µM in assay [1] is at least 30%; in assay [2], 40%. Moreover, the “decrease in tritiated thymidine uptake” value in the assay with Human melanocytes is recorded as 50%.
